Assay results reported in article PMC8217170, “Phase Ib dose-escalation study of the hypoxia-modifier Myo-inositol trispyrophosphate in patients with hepatopancreatobiliary tumors” (Nature Communications, 2021).
Several values for one entry are separate records, joined by “and”; a condition that tells them apart may be missing. Equal entries are not always repeated.

Test: Plasma levels and pharmacokinetics of intravenous ITPP
Conditions: for VSSO / VZO / AUCTmax / AUC∞ / AUC∞ / Dose / AUMCTmax / AUMC∞ / CLO / Clast / Cmax / Cmax / Dose / Cmin / Elimination rate λz / Half-life / T0.5 / MRTTmax / MRT∞ / Tlast / Tmax: individual patients

O=P1(O)OC2C3OP(=O)(O)OP(=O)(O)OC3C3OP(=O)(O)OP(=O)(O)OC3C2OP(=O)(O)O1 (stereo not drawn) [ITPP, Myo-inositol trispyrophosphate]
VSSO (cohort 2 (3732 mg/m2)): 10.6 L and 11.9 L and 8.8 L | VZO (cohort 2 (3732 mg/m2)): 8.9 L and 10.8 L and 8.1 L | AUCTmax (cohort 3 (5600 mg/m2)): 1142.0 µg·h/mL and 856.4 µg·h/mL and 1779.2 µg·h/mL | AUC∞ (cohort 3 (5600 mg/m2)): 1264.3 µg·h/mL and 945.9 µg·h/mL and 1987.5 µg·h/mL | AUC∞ / Dose (cohort 3 (5600 mg/m2)): 0.2 h*mg/L/mg (2×) and 0.4 h*mg/L/mg | AUMCTmax (cohort 3 (5600 mg/m2)): 6061.8 h2*mg/L and 4859.5 h2*mg/L and 9884.9 h2*mg/L | AUMC∞ (cohort 3 (5600 mg/m2)): 7579.9 h2*mg/L and 5932.4 h2*mg/L and 12427.3 h2*mg/L | CLO (cohort 3 (5600 mg/m2)): 4.4 L/h and 5.9 L/h and 2.8 L/h | Clast (cohort 3 (5600 mg/m2)): 50.5 µg/mL and 45.2 µg/mL and 94.2 µg/mL | Cmax (cohort 3 (5600 mg/m2)): 163.0 µg/mL and 120.7 µg/mL and 246.0 µg/mL | Cmax / Dose (cohort 3 (5600 mg/m2)): 0.0 mg/L/mg | Cmin (cohort 3 (5600 mg/m2)): 0 ng/mL | Elimination rate λz (cohort 3 (5600 mg/m2)): 0.4 /h and 0.5 /h (2×) | Half-life / T0.5 (cohort 3 (5600 mg/m2)): 1.7 h and 1.4 h and 1.5 h | MRTTmax (cohort 3 (5600 mg/m2)): 1.3 h and 1.7 h and 1.6 h | MRT∞ (cohort 3 (5600 mg/m2)): 2.0 h and 2.3 h (2×) | Tlast (cohort 3 (5600 mg/m2)): 10 h | Tmax (cohort 3 (5600 mg/m2)): 6.0 h | VSSO (cohort 3 (5600 mg/m2)): 8.8 L and 13.4 L and 6.3 L | VZO (cohort 3 (5600 mg/m2)): 10.7 L and 11.7 L and 6.2 L | AUCTmax (cohort 4 (7000 mg/m2)): 1942.5 µg·h/mL and 1258.2 µg·h/mL and 1667.1 µg·h/mL and 1676.0 µg·h/mL | AUC∞ (cohort 4 (7000 mg/m2)): 3708.1 µg·h/mL and 1559.8 µg·h/mL and 2130.6 µg·h/mL and 1755.9 µg·h/mL | AUC∞ / Dose (cohort 4 (7000 mg/m2)): 0.5 h*mg/L/mg and 0.2 h*mg/L/mg and 0.3 h*mg/L/mg (2×) | AUMCTmax (cohort 4 (7000 mg/m2)): 11888.0 h2*mg/L and 7283.0 h2*mg/L and 9303.5 h2*mg/L and 8707.6 h2*mg/L | AUMC∞ (cohort 4 (7000 mg/m2)): 44109.2 h2*mg/L and 11265.8 h2*mg/L and 15649.8 h2*mg/L and 9654.5 h2*mg/L | CLO (cohort 4 (7000 mg/m2)): 1.9 L/h and 4.5 L/h and 3.3 L/h and 4.0 L/h | Clast (cohort 4 (7000 mg/m2)): 214.0 µg/mL and 94.0 µg/mL and 125.5 µg/mL and 43.0 µg/mL | Cmax (cohort 4 (7000 mg/m2)): 283.0 µg/mL and 166.5 µg/mL and 224.5 µg/mL and 292.0 µg/mL | Cmax / Dose (cohort 4 (7000 mg/m2)): 0.0 mg/L/mg | Cmin (cohort 4 (7000 mg/m2)): 0 ng/mL | Elimination rate λz (cohort 4 (7000 mg/m2)): 0.1 /h and 0.3 /h (2×) and 0.5 /h | Half-life / T0.5 (cohort 4 (7000 mg/m2)): 5.7 h and 2.2 h and 2.6 h and 1.3 h | MRTTmax (cohort 4 (7000 mg/m2)): 2.1 h and 1.8 h and 1.6 h and 1.2 h | MRT∞ (cohort 4 (7000 mg/m2)): 7.9 h and 3.2 h and 3.3 h and 1.5 h | Tlast (cohort 4 (7000 mg/m2)): 10 h | Tmax (cohort 4 (7000 mg/m2)): 9.0 h and 6.0 h (2×) and 3.0 h | VSSO (cohort 4 (7000 mg/m2)): 14.9 L and 14.5 L and 11.0 L and 6.0 L | VZO (cohort 4 (7000 mg/m2)): 15.6 L and 14.4 L and 12.1 L and 7.4 L | AUCTmax (cohort 5 (8750 mg/m2)): 1729.5 µg·h/mL and 2397.4 µg·h/mL and 1424.5 µg·h/mL | AUC∞ (cohort 5 (8750 mg/m2)): 1910.9 µg·h/mL and 2946.9 µg·h/mL and 1803.3 µg·h/mL | AUC∞ / Dose (cohort 5 (8750 mg/m2)): 0.2 h*mg/L/mg (2×) and 0.3 h*mg/L/mg | AUMCTmax (cohort 5 (8750 mg/m2)): 9560.8 h2*mg/L and 13507.9 h2*mg/L and 8120.6 h2*mg/L | AUMC∞ (cohort 5 (8750 mg/m2)): 11777.2 h2*mg/L and 20800.6 h2*mg/L and 13329.9 h2*mg/L | CLO (cohort 5 (8750 mg/m2)): 4.6 L/h and 3.0 L/h and 4.9 L/h | Clast (cohort 5 (8750 mg/m2)): 81.5 µg/mL and 168.0 µg/mL and 101.0 µg/mL | Cmax (cohort 5 (8750 mg/m2)): 266.5 µg/mL and 306.0 µg/mL and 201.0 µg/mL | Cmax / Dose (cohort 5 (8750 mg/m2)): 0.0 mg/L/mg | Cmin (cohort 5 (8750 mg/m2)): 0 ng/mL | Elimination rate λz (cohort 5 (8750 mg/m2)): 0.4 /h and 0.3 /h (2×) | Half-life / T0.5 (cohort 5 (8750 mg/m2)): 1.5 h and 2.3 h and 2.6 h | MRTTmax (cohort 5 (8750 mg/m2)): 1.5 h and 1.6 h and 1.7 h | MRT∞ (cohort 5 (8750 mg/m2)): 2.2 h and 3.1 h and 3.4 h | Tlast (cohort 5 (8750 mg/m2)): 10 h | Tmax (cohort 5 (8750 mg/m2)): 6.0 h | VSSO (cohort 5 (8750 mg/m2)): 9.9 L and 9.1 L and 16.5 L | VZO (cohort 5 (8750 mg/m2)): 10.2 L and 9.7 L and 18.2 L | AUCTmax (cohort 6 (10500 mg/m2)): 1813.1 µg·h/mL and 2491.5 µg·h/mL and 3266.4 µg·h/mL and 2233.0 µg·h/mL | AUC∞ (cohort 6 (10500 mg/m2)): 1921.1 µg·h/mL and 3551.0 µg·h/mL and 8601.3 µg·h/mL and 2661.5 µg·h/mL | AUC∞ / Dose (cohort 6 (10500 mg/m2)): 0.2 h*mg/L/mg and 0.3 h*mg/L/mg (2×) and 0.8 h*mg/L/mg | AUMCTmax (cohort 6 (10500 mg/m2)): 10264.8 h2*mg/L and 13653.6 h2*mg/L and 19354.9 h2*mg/L and 12411.4 h2*mg/L | AUMC∞ (cohort 6 (10500 mg/m2)): 11500.0 h2*mg/L and 30316.3 h2*mg/L and 157035.6 h2*mg/L and 17933.0 h2*mg/L | CLO (cohort 6 (10500 mg/m2)): 5.5 L/h and 3.0 L/h and 1.2 L/h and 3.9 L/h | Clast (cohort 6 (10500 mg/m2)): 74.8 µg/mL and 185.0 µg/mL and 337.5 µg/mL and 148.5 µg/mL | Cmax (cohort 6 (10500 mg/m2)): 265.0 µg/mL and 339.5 µg/mL and 451.0 µg/mL and 299.5 µg/mL | Cmax / Dose (cohort 6 (10500 mg/m2)): 0.0 mg/L/mg | Cmin (cohort 6 (10500 mg/m2)): 0 ng/mL | Elimination rate λz (cohort 6 (10500 mg/m2)): 0.7 h⁻¹ and 0.2 h⁻¹ and 0.1 h⁻¹ and 0.3 h⁻¹ | Half-life / T0.5 (cohort 6 (10500 mg/m2)): 1.0 h and 4.0 h and 11.0 h and 2.0 h | MRTTmax (cohort 6 (10500 mg/m2)): 1.7 h and 1.5 h and 1.9 h and 1.6 h | MRT∞ (cohort 6 (10500 mg/m2)): 2.0 h and 4.5 h and 14.3 h and 2.7 h | Tlast (cohort 6 (10500 mg/m2)): 10 h | Tmax (cohort 6 (10500 mg/m2)): 6.0 h (2×) and 3.0 h (2×) | VSSO (cohort 6 (10500 mg/m2)): 10.9 L and 13.4 L and 17.4 L and 10.8 L | VZO (cohort 6 (10500 mg/m2)): 7.9 L and 16.9 L and 19.3 L and 11.4 L | AUCTmax (cohort 7 (12390 mg/m2)): 2548.8 µg·h/mL and 2725.4 µg·h/mL and 2231.0 µg·h/mL | AUC∞ (cohort 7 (12390 mg/m2)): 3050.7 µg·h/mL and 3012.0 µg·h/mL and 2566.2 µg·h/mL | AUC∞ / Dose (cohort 7 (12390 mg/m2)): 0.2 mg·h/L/mg | AUMCTmax (cohort 7 (12390 mg/m2)): 14937.6 h2*mg/L and 15888.2 h2*mg/L and 12461.8 h2*mg/L | AUMC∞ (cohort 7 (12390 mg/m2)): 21377.1 h2*mg/L and 19295.7 h2*mg/L and 16684.7 h2*mg/L | CLO (cohort 7 (12390 mg/m2)): 4.1 L/h (2×) and 4.8 L/h | Clast (cohort 7 (12390 mg/m2)): 177.5 µg/mL and 152.0 µg/mL and 129.0 µg/mL | Cmax (cohort 7 (12390 mg/m2)): 367.5 µg/mL and 403.5 µg/mL and 311.0 µg/mL | Cmax / Dose (cohort 7 (12390 mg/m2)): 0.0 mg/L/mg | Cmin (cohort 7 (12390 mg/m2)): 0 ng/mL | Elimination rate λz (cohort 7 (12390 mg/m2)): 0.4 /h (2×) and 0.5 /h | Half-life / T0.5 (cohort 7 (12390 mg/m2)): 2.0 h and 1.3 h and 1.8 h | MRTTmax (cohort 7 (12390 mg/m2)): 1.9 h and 1.8 h and 1.6 h | MRT∞ (cohort 7 (12390 mg/m2)): 3.0 h and 2.4 h and 2.5 h | Tlast (cohort 7 (12390 mg/m2)): 10 h | Tmax (cohort 7 (12390 mg/m2)): 6.0 h | VSSO (cohort 7 (12390 mg/m2)): 12.2 L and 9.9 L and 12.1 L | VZO (cohort 7 (12390 mg/m2)): 11.5 L and 7.8 L and 12.5 L | AUCTmax (cohort 8 (14500 mg/m2)): 3458.0 µg·h/mL and 2612.8 µg·h/mL and 3213.9 µg·h/mL and 2461.1 µg·h/mL | AUC∞ (cohort 8 (14500 mg/m2)): 3978.5 µg·h/mL and 2818.3 µg·h/mL and 3977.9 µg·h/mL and 2763.6 µg·h/mL | AUC∞ / Dose (cohort 8 (14500 mg/m2)): 0.3 h*mg/L/mg (2×) and 0.2 h*mg/L/mg (2×) | AUMCTmax (cohort 8 (14500 mg/m2)): 20144.2 h2*mg/L and 14245.4 h2*mg/L and 18540.8 h2*mg/L and 14081.6 h2*mg/L | AUMC∞ (cohort 8 (14500 mg/m2)): 26577.3 h2*mg/L and 16679.9 h2*mg/L and 28758.2 h2*mg/L and 17835.7 h2*mg/L | CLO (cohort 8 (14500 mg/m2)): 3.6 L/h (2×) and 5.1 L/h and 5.2 L/h | Clast (cohort 8 (14500 mg/m2)): 220.5 µg/mL and 111.5 µg/mL and 226.5 µg/mL and 125.7 µg/mL | Cmax (cohort 8 (14500 mg/m2)): 496.0 µg/mL and 377.0 µg/mL and 464.5 µg/mL and 426.0 µg/mL | Cmax / Dose (cohort 8 (14500 mg/m2)): 0.0 mg/L/mg | Cmin (cohort 8 (14500 mg/m2)): 0 ng/mL | Elimination rate λz (cohort 8 (14500 mg/m2)): 0.4 /h (2×) and 0.5 /h and 0.3 /h | Half-life / T0.5 (cohort 8 (14500 mg/m2)): 1.6 h and 1.3 h and 2.3 h and 1.7 h | MRTTmax (cohort 8 (14500 mg/m2)): 1.8 h (2×) and 1.5 h and 1.7 h | MRT∞ (cohort 8 (14500 mg/m2)): 2.7 h and 1.9 h and 3.2 h and 2.5 h | Tlast (cohort 8 (14500 mg/m2)): 10 h | Tmax (cohort 8 (14500 mg/m2)): 6.0 h | VSSO (cohort 8 (14500 mg/m2)): 9.8 L and 9.9 L and 11.8 L and 12.9 L | VZO (cohort 8 (14500 mg/m2)): 8.6 L and 9.5 L and 12.3 L and 12.6 L | Half-life (range over the different cohorts): 1.3 to 3.3 h
